# In patent publication US20150072856A1, “ADJUVANTS BASED ON OPTIONALLY ALKOXYLATED REACTION PRODUCTS OF GLYCEROL CARBONATE AND ALKYLAMINES” (BASF SE, priority 2012, published 2015):
# How the values were obtained:
# Type in all cases: in vivo
# Conditions in all cases: 300 g/ha adjuvant, 375 l/ha tank mix, score vs untreated plants
# rapeseed = experiment: Greenhouse herbicidal activity of glyphosate tank mix with adjuvant on rapeseed
# Description: (§1) An aqueous formulation (SL type) was prepared by dissolving 52.3 wt % potassium glyphosate in water. As adjuvant the ethoxylated (10 equivalents) carbamate from Example 1 was added and dissolved in the resulting SL formulation. This SL formulation was diluted with water to prepare a tank mix, which contained 0.8 g/l of the adjuvant, 0.75 g/l of the potassium glyphosate (or as alternative tank mix 0.37 g/l). This tankmix may be applied at 375 l/ha (corresponding to 300 g/ha adjuvant and 280 g/ha glyphosate (or 140 g/ha as alternative).
# (§2) For the greenhouse tests, various crops (winter wheat (cultivar Cubus), maize (cultivar Amadeo), soybean (cultivar Delta P.), rapeseed) was sown or potted in loamy sandy soil to a depth of 1-2 cm. When the plants had reached a growth height of 10 to 25 cm (i.e., around 10 to 21 days after sowing), the spray mixtures were applied to the plants in a spraying cabin.
# (§3) The tank mix prepared in Example 7 was applied at a application rate of 375 l/ha (140 or 280 g of glyphosate/ha and 300 g of adjuvant/ha). The temperatures in the experimental period, which lasted for 3 to 4 weeks, were between 18-35° C. […]
# (§4) The herbicidal activity was evaluated by awarding scores to the treated plants in comparison to the untreated control plants (Table 1 and 2). […]
# [1] = tested on: winter wheat (cultivar Cubus); experiment: Greenhouse herbicidal activity of glyphosate tank mix with adjuvant on wheat
# Description: as §1, §2, §3, §4
# maize (cultivar Amadeo) = experiment: Greenhouse herbicidal activity of glyphosate tank mix with adjuvant on maize
# Description: as §1, §2, §3, §4
# [2] = tested on: soybean (cultivar Delta P.); experiment: Greenhouse herbicidal activity of glyphosate tank mix with adjuvant on soybean
# Description: as §1, §2, §3, §4
compound,measurement,setting,value
"O=C(O)CNCP(=O)([O-])O.[K+] [—, potassium glyphosate]","Activity [%] after 21 days DAT, Rapeseed",rapeseed; 140 g/ha glyphosate,0%
same,"Activity [%] after 21 days DAT, Rapeseed",rapeseed; 280 g/ha glyphosate,0%
same,"Activity [%] after 21 days DAT, Wheat",[1]; 140 g/ha glyphosate,8%
same,"Activity [%] after 21 days DAT, Wheat",[1]; 280 g/ha glyphosate,31%
same,"Activity [%] after 21 days DAT, Maize",maize (cultivar Amadeo); 140 g/ha glyphosate,13%
same,"Activity [%] after 21 days DAT, Maize",maize (cultivar Amadeo); 280 g/ha glyphosate,63%
same,"Activity [%] after 21 days DAT, Soybean",[2]; 140 g/ha glyphosate,0%
same,"Activity [%] after 21 days DAT, Soybean",[2]; 280 g/ha glyphosate,0%
